{"source": "patent EP2057188B1", "about": "(priority 2006, dated 2008)", "key": {"[1]": {"details": "cited from earlier work; for inhibition of gastric emptying: at doses of 100µg; for EC(50): inhibition of gastric emptying, subcutaneous"}, "[2]": {"format": "in vivo, NIH/Swiss mice", "details": "80 nmol/Kg; AUC240", "protocol": "Gavage (1.5g/kg) was given at t=0. Sample was taken at t=30 min."}}, "note": "Where two headings read alike, the source gives them in different places. Ends that are not written are not given here."}
{"compound": "pancreatic polypeptide: peptide compared for inhibition of gastric emptying in conscious rats (APLEPVYPGDNATPEQMAQYAADLRRYINMLTRPRY; ends and bridges not checked; UniProt P01298 30-65, looked up)", "values": [{"measurement": "inhibition of gastric emptying", "setting": "[1]", "value": "weakly active or inactive"}]}
{"compound": "KCNTATCATQRLANFLVHSSNNFGAILSSTNVGSNTY [Human amylin]", "values": [{"measurement": "EC(50)", "setting": "[1]; conscious rats ~200g", "value": 0.15, "unit": "µg"}, {"measurement": "EC(50)", "setting": "[1]; conscious rats", "value": 0.19, "unit": "nmol/kg"}]}
{"compound": "vasoactive intestinal peptide: peptide compared for inhibition of gastric emptying in conscious rats (HSDAVFTDNYTRLRKQMAVKKYLNSILN; ends and bridges not checked; UniProt P01282 125-152, looked up)", "values": [{"measurement": "inhibition of gastric emptying", "setting": "[1]", "value": "weakly active or inactive"}]}
{"compound": "PACAP38: pituitary adenylate cyclase activating peptide (HSDGIFTDSYSRYRKQMAVKKYLAAVLGKRYKQRVKNK-NH2; ends and bridges not checked; UniProt P18509 132-169, looked up)", "values": [{"measurement": "inhibition of gastric emptying", "setting": "[1]", "value": "weakly active or inactive"}]}
{"compound": "CC[C@H](C)[C@H](NC(=O)[C@H](CO)NC(=O)[C@H](Cc1ccc(O)cc1)NC(=O)[C@H](CC(=O)O)NC(=O)[C@H](CO)NC(=O)[C@@H](NC(=O)[C@H](Cc1ccccc1)NC(=O)[C@@H](NC(=O)CNC(=O)[C@H](CCC(=O)O)NC(=O)[C@@H](C)NC(=O)[C@@H](N)Cc1ccc(O)cc1)[C@@H](C)O)[C@@H](C)CC)C(=O)N[C@@H](C)C(=O)N[C@@H](CC(C)C)C(=O)N[C@@H](CC(=O)O)C(=O)N[C@@H](CCCCN)C(=O)N[C@H](C(=O)N[C@@H](CCCNC(=N)N)C(=O)N[C@@H](CCC(N)=O)C(=O)N[C@@H](CCC(N)=O)C(=O)N[C@@H](CCC(=O)O)C(=O)N[C@@H](Cc1ccccc1)C(=O)N[C@H](C(=O)N[C@@H](CC(N)=O)C(=O)N[C@@H](Cc1c[nH]c2ccccc12)C(=O)N[C@@H](CC(C)C)C(=O)N[C@@H](CC(C)C)C(=O)N[C@@H](C)C(=O)N[C@@H](CCC(N)=O)C(=O)N[C@@H](CCCCN)C(=O)N1CCC[C@H]1C(=O)N[C@@H](CCCCN)C(=O)N[C@@H](CCCCN)C(=O)N[C@H](C(=O)N[C@@H](CCCNC(=N)N)C(=O)N[C@@H](Cc1ccc(O)cc1)C(=O)N[C@@H](CO)C(N)=O)[C@@H](C)CC)C(C)C)[C@@H](C)CC", "note": "[0601GIP4539]", "values": [{"measurement": "Basal Glucose Lowering at 80 nmol/Kg", "setting": "[2]", "value": "-5%, AUC240"}]}
{"compound": "^25,28,29Pro-h-amylin (KCNTATCATQRLANFLVHSSNNFGPILPPTNVGSNTY; chains of the INN, looked up) [Pramlintide]", "values": [{"measurement": "EC(50)", "setting": "[1]; conscious rats ~200g", "value": 0.07, "unit": "µg"}]}
{"compound": "Gastrin releasing peptide: peptide compared for inhibition of gastric emptying in conscious rats (VPLPAGGGTVLTKMYPRGNHWAVGHLM; ends and bridges not checked; UniProt P07492 24-50, looked up)", "values": [{"measurement": "EC(50)", "setting": "[1]; conscious rats ~200g", "value": 28.5, "unit": "µg"}, {"measurement": "EC(50)", "setting": "[1]; conscious rats", "value": 49.9, "unit": "nmol/kg"}]}
{"compound": "CC[C@H](C)[C@H](NC(=O)[C@H](CO)NC(=O)[C@H](Cc1ccc(O)cc1)NC(=O)[C@H](CC(=O)O)NC(=O)[C@H](CO)NC(=O)[C@@H](NC(=O)[C@H](Cc1ccccc1)NC(=O)[C@@H](NC(=O)CNC(=O)[C@H](CCC(=O)O)NC(=O)[C@@H](C)NC(=O)[C@@H](N)Cc1ccc(O)cc1)[C@@H](C)O)[C@@H](C)CC)C(=O)N[C@@H](C)C(=O)N[C@@H](CCSC)C(=O)N[C@@H](CC(=O)O)C(=O)N[C@@H](CCCCN)C(=O)N[C@H](C(=O)N[C@@H](Cc1c[nH]cn1)C(=O)N[C@@H](CCC(N)=O)C(=O)N[C@@H](CCC(N)=O)C(=O)N[C@@H](CC(=O)O)C(=O)N[C@@H](Cc1ccccc1)C(=O)N[C@H](C(=O)N[C@@H](CC(N)=O)C(=O)N[C@@H](Cc1c[nH]c2ccccc12)C(=O)N[C@@H](CC(C)C)C(=O)N[C@@H](CC(C)C)C(=O)N[C@@H](C)C(=O)N[C@@H](CCC(N)=O)C(=O)N[C@@H](CCCCN)C(=O)N1CCC[C@H]1C(=O)N[C@@H](CO)C(=O)N[C@@H](CCCCN)C(=O)N[C@@H](CCC(=O)O)C(=O)N[C@H](C(=O)N[C@H](C(=O)N[C@@H](CO)C(N)=O)[C@@H](C)CC)[C@@H](C)CC)C(C)C)[C@@H](C)CC", "note": "[Compound 0601GIP4234]", "values": [{"measurement": "Basal Glucose Lowering at 80 nmol/Kg", "setting": "[2]", "value": "-11%, AUC240"}]}
{"compound": "CC[C@H](C)[C@H](NC(=O)[C@H](CO)NC(=O)[C@H](Cc1ccc(O)cc1)NC(=O)[C@H](CC(=O)O)NC(=O)[C@H](CO)NC(=O)[C@@H](NC(=O)[C@H](Cc1ccccc1)NC(=O)[C@@H](NC(=O)CNC(=O)[C@H](CCC(=O)O)NC(=O)[C@@H](C)NC(=O)[C@@H](N)Cc1ccc(O)cc1)[C@@H](C)O)[C@@H](C)CC)C(=O)N[C@@H](C)C(=O)N[C@@H](CCSC)C(=O)N[C@@H](CC(=O)O)C(=O)N[C@@H](CCCCN)C(=O)N[C@H](C(=O)N[C@@H](Cc1c[nH]cn1)C(=O)N[C@@H](CCC(N)=O)C(=O)N[C@@H](CCC(N)=O)C(=O)N[C@@H](CC(=O)O)C(=O)N[C@@H](Cc1ccccc1)C(=O)N[C@H](C(=O)N[C@@H](CC(N)=O)C(=O)N[C@@H](Cc1c[nH]c2ccccc12)C(=O)N[C@@H](CC(C)C)C(=O)N[C@@H](CC(C)C)C(=O)N[C@@H](C)C(=O)N[C@@H](CCC(N)=O)C(=O)N[C@@H](CCCCN)C(=O)N[C@H](C(=O)N[C@@H](CO)C(=O)N1CCC[C@H]1C(=O)N[C@@H](CCCNC(=N)N)C(=O)N1CCC[C@H]1C(=O)N1CCC[C@H]1C(=O)N[C@@H](CO)C(N)=O)[C@@H](C)O)C(C)C)[C@@H](C)CC", "note": "[Compound 0601GIP4236]", "values": [{"measurement": "Basal Glucose Lowering at 80 nmol/Kg", "setting": "[2]", "value": "-12%,"}]}
{"compound": "CC[C@H](C)[C@H](NC(=O)[C@H](CO)NC(=O)[C@H](Cc1ccc(O)cc1)NC(=O)[C@H](CC(=O)O)NC(=O)[C@H](CO)NC(=O)[C@@H](NC(=O)[C@H](Cc1ccccc1)NC(=O)[C@@H](NC(=O)CNC(=O)[C@H](CCC(=O)O)NC(=O)[C@@H](C)NC(=O)[C@@H](N)Cc1ccc(O)cc1)[C@@H](C)O)[C@@H](C)CC)C(=O)N[C@@H](C)C(=O)N[C@@H](CCSC)C(=O)N[C@@H](CC(=O)O)C(=O)N[C@@H](CCCCN)C(=O)N[C@H](C(=O)N[C@@H](Cc1c[nH]cn1)C(=O)N[C@@H](CCC(N)=O)C(=O)N[C@@H](CCC(N)=O)C(=O)N[C@@H](CC(=O)O)C(=O)N[C@@H](Cc1ccccc1)C(=O)N[C@H](C(=O)N[C@@H](CC(N)=O)C(=O)N[C@@H](Cc1c[nH]c2ccccc12)C(=O)N[C@@H](CC(C)C)C(=O)N[C@@H](CC(C)C)C(=O)N[C@@H](C)C(=O)N[C@@H](CCC(N)=O)C(=O)N[C@@H](CCCCN)C(=O)NCCC(=O)NCCC(=O)N1CCC[C@H]1C(=O)N[C@@H](CCCCN)C(=O)N[C@@H](CCCCN)C(=O)N[C@H](C(=O)N[C@@H](CCCNC(=N)N)C(=O)N[C@@H](Cc1ccc(O)cc1)C(=O)N[C@@H](CO)C(N)=O)[C@@H](C)CC)C(C)C)[C@@H](C)CC", "note": "[0601GIP4648]", "values": [{"measurement": "Basal Glucose Lowering at 80 nmol/Kg", "setting": "[2]", "value": "-8%, AUC240"}]}
{"compound": "CC[C@H](C)[C@H](NC(=O)[C@H](CO)NC(=O)[C@H](Cc1ccc(O)cc1)NC(=O)[C@H](CC(=O)O)NC(=O)[C@H](CO)NC(=O)[C@@H](NC(=O)[C@H](Cc1ccccc1)NC(=O)[C@@H](NC(=O)CNC(=O)[C@H](CCC(=O)O)NC(=O)[C@@H](C)NC(=O)[C@@H](N)Cc1ccc(O)cc1)[C@@H](C)O)[C@@H](C)CC)C(=O)N[C@@H](C)C(=O)N[C@@H](CCSC)C(=O)N[C@@H](CC(=O)O)C(=O)N[C@@H](CCCCN)C(=O)N[C@H](C(=O)N[C@@H](Cc1c[nH]cn1)C(=O)N[C@@H](CCC(N)=O)C(=O)N[C@@H](CCC(N)=O)C(=O)N[C@@H](CC(=O)O)C(=O)N[C@@H](Cc1ccccc1)C(=O)N[C@H](C(=O)N[C@@H](CCC(N)=O)C(=O)N[C@@H](Cc1c[nH]c2ccccc12)C(=O)N[C@@H](CC(C)C)C(=O)N[C@@H](CC(C)C)C(=O)N[C@@H](C)C(=O)N[C@@H](CCC(N)=O)C(=O)N[C@@H](CCCCN)C(=O)N1CCC[C@H]1C(=O)N[C@@H](CO)C(=O)N[C@@H](CO)C(=O)NCC(=O)N[C@@H](C)C(=O)N1CCC[C@H]1C(=O)N1CCC[C@H]1C(=O)N1CCC[C@H]1C(=O)N[C@@H](CO)C(N)=O)C(C)C)[C@@H](C)CC", "note": "[0601 GIP48 46]", "values": [{"measurement": "Basal Glucose Lowering at 80 nmol/Kg", "setting": "[2]", "value": "-6%, AUC2 40"}]}
{"compound": "CC[C@H](C)[C@H](NC(=O)[C@H](CO)NC(=O)[C@H](Cc1ccc(O)cc1)NC(=O)[C@H](CC(=O)O)NC(=O)[C@H](CO)NC(=O)[C@@H](NC(=O)[C@H](Cc1ccccc1)NC(=O)[C@@H](NC(=O)CNC(=O)[C@H](CCC(=O)O)NC(=O)[C@@H](C)NC(=O)[C@@H](N)Cc1ccc(O)cc1)[C@@H](C)O)[C@@H](C)CC)C(=O)N[C@@H](C)C(=O)N[C@@H](CCSC)C(=O)N[C@@H](CC(=O)O)C(=O)N[C@@H](CCCCN)C(=O)N[C@H](C(=O)N[C@@H](Cc1c[nH]cn1)C(=O)N[C@@H](CCC(N)=O)C(=O)N[C@@H](CCC(N)=O)C(=O)N[C@@H](CC(=O)O)C(=O)N[C@@H](Cc1ccccc1)C(=O)N[C@H](C(=O)N[C@@H](CC(N)=O)C(=O)N[C@@H](Cc1c[nH]c2ccccc12)C(=O)N[C@@H](CC(C)C)C(=O)N[C@@H](CC(C)C)C(=O)N[C@@H](C)C(=O)N[C@@H](CCC(N)=O)C(=O)N[C@@H](CCCCN)C(=O)N1CCC[C@H]1C(=O)N[C@@H](CO)C(=O)N[C@@H](CO)C(=O)NCC(=O)N[C@@H](C)C(=O)N1CCC[C@H]1C(=O)NCC(=O)N1CCC[C@H]1C(=O)N[C@@H](CO)C(N)=O)C(C)C)[C@@H](C)CC", "note": "[0601 GIP49 52]", "values": [{"measurement": "Basal Glucose Lowering at 80 nmol/Kg", "setting": "[2]", "value": "-1, AUC2 40%"}]}
{"compound": "CC[C@H](C)[C@H](NC(=O)[C@H](CO)NC(=O)[C@H](Cc1ccc(O)cc1)NC(=O)[C@H](CC(=O)O)NC(=O)[C@H](CO)NC(=O)[C@@H](NC(=O)[C@H](Cc1ccccc1)NC(=O)[C@@H](NC(=O)CNC(=O)[C@H](CCC(=O)O)NC(=O)[C@@H](C)NC(=O)[C@@H](N)Cc1ccc(O)cc1)[C@@H](C)O)[C@@H](C)CC)C(=O)N[C@@H](C)C(=O)N[C@@H](CCSC)C(=O)N[C@@H](CC(=O)O)C(=O)N[C@@H](CCCCN)C(=O)N[C@H](C(=O)N[C@@H](Cc1c[nH]cn1)C(=O)N[C@@H](CCC(N)=O)C(=O)N[C@@H](CCC(N)=O)C(=O)N[C@@H](CC(=O)O)C(=O)N[C@@H](Cc1ccccc1)C(=O)N[C@H](C(=O)N[C@@H](CC(N)=O)C(=O)N[C@@H](Cc1c[nH]c2ccccc12)C(=O)N[C@@H](CC(C)C)C(=O)N[C@@H](CC(C)C)C(=O)N[C@@H](C)C(=O)N[C@@H](CCC(N)=O)C(=O)N[C@@H](CCCCN)C(=O)N1CCC[C@H]1C(=O)N[C@@H](CCCCN)C(=O)NCC(=O)N[C@@H](CCCCN)C(=O)NCC(=O)N[C@@H](CCCCN)C(=O)N[C@@H](CO)C(N)=O)C(C)C)[C@@H](C)CC", "note": "[0601GIP4700]", "values": [{"measurement": "Basal Glucose Lowering at 80 nmol/Kg", "setting": "[2]", "value": "-6%, AUC240"}]}
